Patent publication US20250120967A1, “TYROSINE KINASES INHIBITORS AND USES THEREOF” (GREAT NOVEL THERAPEUTICS BIOTECH & MEDICALS CORPORATION, priority 2023, published 2025)

What was measured:
Assay in all cases: Tyrosine kinase inhibition assay
Type in all cases: biochemical
Settings in all cases: single concentration 1.0 μM, read-out: percent inhibition
[1] = target: ERBB4 (HER4) (Homo sapiens, UniProt Q15303)
In short: (§1)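 Peptide/kinase mixtures and ATP (apparent Km) are combined in 50 mM HEPES pH 7.5 kinase buffer with 10 mM MgCl2, 1 mM EGTA and 0.01% BRIJ-35, compound at 1.0 μM in 1% DMSO. Development reagent is then added and percent inhibition calculated.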

[2] = target: FGFR2 (Homo sapiens, UniProt P21802)
In short: as §1

[3] = target: JAK2 (Homo sapiens, UniProt O60674)
In short: as §1

[4] = target: PDGFRB (PDGFR beta) (Homo sapiens, UniProt P09619)
In short: as §1

[5] = target: PIK3CG (p110 gamma) (Homo sapiens, UniProt P48736)
In short: as §1

[6] = target: RAF1 (cRAF) Y340D Y341D (Homo sapiens, UniProt P04049, Y340D/Y341D)
In short: as §1

[7] = target: T1, TNK1 (Homo sapiens, UniProt Q13470)
T1 sequence (Q13470 1-666): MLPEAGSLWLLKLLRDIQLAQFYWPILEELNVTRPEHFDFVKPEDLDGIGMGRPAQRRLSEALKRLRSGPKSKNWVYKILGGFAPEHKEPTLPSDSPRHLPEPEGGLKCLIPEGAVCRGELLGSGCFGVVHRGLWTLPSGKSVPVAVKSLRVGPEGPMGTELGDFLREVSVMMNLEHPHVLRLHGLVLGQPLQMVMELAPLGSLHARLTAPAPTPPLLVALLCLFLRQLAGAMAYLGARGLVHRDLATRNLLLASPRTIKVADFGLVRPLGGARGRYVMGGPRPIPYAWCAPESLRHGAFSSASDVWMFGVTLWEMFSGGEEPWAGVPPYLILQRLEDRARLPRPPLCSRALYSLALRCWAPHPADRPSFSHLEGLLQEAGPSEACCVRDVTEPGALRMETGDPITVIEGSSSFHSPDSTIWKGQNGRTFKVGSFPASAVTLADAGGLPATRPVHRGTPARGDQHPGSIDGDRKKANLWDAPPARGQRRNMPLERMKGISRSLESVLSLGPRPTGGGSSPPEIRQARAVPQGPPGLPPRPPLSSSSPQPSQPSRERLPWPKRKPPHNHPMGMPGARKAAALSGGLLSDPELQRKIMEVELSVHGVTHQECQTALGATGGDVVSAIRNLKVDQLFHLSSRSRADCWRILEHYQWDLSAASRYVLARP
In short: as §1

[8] = target: T2, TXK (Homo sapiens, UniProt P42681)
T2 sequence (P42681 1-527): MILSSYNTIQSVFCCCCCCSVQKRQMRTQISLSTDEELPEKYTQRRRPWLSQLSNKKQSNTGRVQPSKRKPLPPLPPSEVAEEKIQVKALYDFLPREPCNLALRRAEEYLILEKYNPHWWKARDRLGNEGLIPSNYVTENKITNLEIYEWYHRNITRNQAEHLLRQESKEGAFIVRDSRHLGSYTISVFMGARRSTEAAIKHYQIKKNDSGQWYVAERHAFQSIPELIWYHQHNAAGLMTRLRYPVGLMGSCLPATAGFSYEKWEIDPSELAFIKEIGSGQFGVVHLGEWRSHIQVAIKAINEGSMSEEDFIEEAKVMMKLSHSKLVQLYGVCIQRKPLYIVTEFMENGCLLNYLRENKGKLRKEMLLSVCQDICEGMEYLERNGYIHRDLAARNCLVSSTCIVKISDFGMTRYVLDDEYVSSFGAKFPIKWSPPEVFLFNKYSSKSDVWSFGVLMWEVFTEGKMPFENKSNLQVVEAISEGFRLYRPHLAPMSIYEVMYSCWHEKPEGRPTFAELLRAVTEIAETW
In short: as §1

[9] = target: T3, ZAP70 (Homo sapiens, UniProt P43403)
T3 sequence (P43403 1-619): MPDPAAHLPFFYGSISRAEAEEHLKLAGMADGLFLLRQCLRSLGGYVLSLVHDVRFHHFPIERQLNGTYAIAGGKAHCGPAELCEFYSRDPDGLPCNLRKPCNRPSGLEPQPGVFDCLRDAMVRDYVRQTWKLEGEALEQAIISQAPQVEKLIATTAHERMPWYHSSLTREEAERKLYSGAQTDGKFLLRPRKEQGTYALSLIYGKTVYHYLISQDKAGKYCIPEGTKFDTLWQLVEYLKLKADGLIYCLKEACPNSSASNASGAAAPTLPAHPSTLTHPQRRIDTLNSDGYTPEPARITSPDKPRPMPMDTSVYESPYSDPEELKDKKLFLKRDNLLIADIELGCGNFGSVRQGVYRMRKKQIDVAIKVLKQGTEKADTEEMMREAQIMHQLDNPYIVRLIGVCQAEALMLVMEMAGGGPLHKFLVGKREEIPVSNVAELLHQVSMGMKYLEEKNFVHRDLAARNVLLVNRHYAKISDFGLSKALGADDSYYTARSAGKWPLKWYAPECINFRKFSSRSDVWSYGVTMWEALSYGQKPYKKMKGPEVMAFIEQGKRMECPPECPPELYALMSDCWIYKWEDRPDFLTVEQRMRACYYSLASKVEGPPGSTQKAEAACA
In short: as §1

PIK3CG (p110 gamma), sequence (P48736 whole entry): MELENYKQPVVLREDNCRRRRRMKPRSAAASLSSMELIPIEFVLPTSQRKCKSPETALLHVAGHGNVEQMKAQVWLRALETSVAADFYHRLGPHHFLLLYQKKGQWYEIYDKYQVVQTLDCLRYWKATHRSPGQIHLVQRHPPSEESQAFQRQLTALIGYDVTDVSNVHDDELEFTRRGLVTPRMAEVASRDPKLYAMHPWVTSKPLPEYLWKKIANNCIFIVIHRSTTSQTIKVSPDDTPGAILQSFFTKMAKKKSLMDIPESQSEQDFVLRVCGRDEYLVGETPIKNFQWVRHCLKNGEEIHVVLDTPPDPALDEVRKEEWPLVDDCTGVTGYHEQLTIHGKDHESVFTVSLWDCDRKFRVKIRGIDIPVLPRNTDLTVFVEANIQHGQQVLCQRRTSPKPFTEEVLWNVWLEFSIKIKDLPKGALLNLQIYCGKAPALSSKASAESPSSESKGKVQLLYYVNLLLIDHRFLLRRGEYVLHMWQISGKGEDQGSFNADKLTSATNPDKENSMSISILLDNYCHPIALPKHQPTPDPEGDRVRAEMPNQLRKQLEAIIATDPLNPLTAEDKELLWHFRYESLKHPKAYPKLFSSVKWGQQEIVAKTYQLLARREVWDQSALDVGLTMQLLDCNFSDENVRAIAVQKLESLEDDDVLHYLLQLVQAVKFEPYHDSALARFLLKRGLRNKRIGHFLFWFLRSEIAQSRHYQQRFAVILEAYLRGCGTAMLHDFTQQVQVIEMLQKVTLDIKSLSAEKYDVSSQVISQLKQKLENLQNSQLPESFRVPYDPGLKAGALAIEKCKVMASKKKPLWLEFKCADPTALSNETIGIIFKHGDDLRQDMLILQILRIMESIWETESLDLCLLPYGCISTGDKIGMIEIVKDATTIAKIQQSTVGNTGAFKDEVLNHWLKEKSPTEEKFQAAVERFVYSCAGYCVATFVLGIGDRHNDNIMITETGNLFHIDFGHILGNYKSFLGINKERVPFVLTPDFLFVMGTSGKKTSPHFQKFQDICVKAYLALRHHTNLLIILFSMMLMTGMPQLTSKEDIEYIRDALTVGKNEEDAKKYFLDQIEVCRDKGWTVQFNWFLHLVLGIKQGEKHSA
RAF1 (cRAF) Y340D Y341D, sequence (P04049 whole entry Y340D/Y341D): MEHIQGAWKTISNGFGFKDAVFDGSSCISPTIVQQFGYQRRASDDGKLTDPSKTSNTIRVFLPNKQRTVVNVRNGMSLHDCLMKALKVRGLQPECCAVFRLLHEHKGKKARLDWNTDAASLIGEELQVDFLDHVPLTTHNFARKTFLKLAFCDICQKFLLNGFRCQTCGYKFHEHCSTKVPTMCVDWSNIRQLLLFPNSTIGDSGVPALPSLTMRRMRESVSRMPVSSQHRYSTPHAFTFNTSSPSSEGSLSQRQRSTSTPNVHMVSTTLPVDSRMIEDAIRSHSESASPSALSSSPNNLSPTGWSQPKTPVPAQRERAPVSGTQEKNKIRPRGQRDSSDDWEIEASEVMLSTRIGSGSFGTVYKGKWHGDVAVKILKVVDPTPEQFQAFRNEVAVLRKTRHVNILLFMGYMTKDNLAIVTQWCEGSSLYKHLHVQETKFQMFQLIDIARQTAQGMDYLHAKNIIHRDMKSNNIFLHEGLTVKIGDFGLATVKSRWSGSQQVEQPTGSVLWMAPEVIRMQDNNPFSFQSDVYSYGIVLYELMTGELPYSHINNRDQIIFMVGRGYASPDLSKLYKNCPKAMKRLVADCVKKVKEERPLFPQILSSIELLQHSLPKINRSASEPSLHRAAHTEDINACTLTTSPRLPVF
PDGFRB (PDGFR beta), sequence (P09619 33-1106): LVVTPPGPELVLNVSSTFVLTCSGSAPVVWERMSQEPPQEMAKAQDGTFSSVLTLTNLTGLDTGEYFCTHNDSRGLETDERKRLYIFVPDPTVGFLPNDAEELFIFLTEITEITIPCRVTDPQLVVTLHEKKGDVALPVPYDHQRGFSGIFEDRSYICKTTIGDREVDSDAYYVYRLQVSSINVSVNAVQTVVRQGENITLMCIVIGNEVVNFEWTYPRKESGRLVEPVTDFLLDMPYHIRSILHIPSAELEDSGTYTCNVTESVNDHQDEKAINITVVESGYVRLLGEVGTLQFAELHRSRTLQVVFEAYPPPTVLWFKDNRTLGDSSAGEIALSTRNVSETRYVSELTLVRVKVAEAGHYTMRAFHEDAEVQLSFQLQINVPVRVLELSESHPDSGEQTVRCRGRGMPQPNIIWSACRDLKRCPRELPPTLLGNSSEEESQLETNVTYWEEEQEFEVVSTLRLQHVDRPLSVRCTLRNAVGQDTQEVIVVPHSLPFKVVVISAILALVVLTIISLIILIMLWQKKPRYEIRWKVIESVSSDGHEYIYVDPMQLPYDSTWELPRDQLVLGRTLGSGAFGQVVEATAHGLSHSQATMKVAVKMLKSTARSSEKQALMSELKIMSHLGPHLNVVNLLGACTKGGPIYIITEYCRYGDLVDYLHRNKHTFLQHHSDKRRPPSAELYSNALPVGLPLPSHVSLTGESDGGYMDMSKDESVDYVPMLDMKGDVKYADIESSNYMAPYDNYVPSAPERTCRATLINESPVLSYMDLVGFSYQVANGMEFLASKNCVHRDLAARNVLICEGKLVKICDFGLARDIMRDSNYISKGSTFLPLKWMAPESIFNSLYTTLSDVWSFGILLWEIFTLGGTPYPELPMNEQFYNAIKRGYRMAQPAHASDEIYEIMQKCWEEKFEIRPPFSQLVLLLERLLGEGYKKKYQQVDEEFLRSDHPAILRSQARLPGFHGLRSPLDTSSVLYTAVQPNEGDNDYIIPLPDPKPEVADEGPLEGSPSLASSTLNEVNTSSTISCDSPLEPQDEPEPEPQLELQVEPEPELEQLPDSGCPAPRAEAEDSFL
ERBB4 (HER4), sequence (Q15303 26-1308): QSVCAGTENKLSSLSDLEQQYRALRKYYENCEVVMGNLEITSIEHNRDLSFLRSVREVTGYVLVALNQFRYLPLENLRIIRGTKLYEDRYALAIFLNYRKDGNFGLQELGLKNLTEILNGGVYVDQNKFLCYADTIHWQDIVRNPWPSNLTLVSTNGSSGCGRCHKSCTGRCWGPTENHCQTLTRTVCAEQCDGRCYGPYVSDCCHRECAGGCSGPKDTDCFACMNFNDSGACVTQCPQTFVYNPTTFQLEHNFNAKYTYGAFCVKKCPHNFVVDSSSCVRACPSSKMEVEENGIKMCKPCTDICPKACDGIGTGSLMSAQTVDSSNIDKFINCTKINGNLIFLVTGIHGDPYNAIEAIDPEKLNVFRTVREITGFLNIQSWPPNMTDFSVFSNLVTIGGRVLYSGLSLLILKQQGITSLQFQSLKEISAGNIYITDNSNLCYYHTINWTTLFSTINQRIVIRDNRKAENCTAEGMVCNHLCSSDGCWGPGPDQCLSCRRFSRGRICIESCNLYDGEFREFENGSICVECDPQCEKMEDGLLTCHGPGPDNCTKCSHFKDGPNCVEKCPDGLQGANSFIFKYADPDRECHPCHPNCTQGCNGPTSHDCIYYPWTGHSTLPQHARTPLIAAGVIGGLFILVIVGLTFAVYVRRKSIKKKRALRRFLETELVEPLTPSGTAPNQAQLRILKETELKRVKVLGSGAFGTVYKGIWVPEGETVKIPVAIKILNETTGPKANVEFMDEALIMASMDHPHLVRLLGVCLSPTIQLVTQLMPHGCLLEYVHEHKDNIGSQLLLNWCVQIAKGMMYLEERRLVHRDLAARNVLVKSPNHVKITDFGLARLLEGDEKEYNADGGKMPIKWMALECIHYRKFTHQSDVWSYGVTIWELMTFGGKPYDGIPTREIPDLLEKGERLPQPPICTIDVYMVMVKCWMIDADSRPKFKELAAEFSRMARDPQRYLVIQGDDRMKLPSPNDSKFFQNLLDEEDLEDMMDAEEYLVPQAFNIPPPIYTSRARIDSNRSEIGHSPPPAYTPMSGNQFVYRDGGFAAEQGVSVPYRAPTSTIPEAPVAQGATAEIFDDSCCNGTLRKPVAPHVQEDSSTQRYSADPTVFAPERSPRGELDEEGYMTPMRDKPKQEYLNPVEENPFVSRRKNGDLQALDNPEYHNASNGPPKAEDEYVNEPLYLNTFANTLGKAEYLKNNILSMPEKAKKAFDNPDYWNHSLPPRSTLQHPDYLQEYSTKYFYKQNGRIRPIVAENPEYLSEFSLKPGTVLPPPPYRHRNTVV
FGFR2, sequence (P21802 22-821): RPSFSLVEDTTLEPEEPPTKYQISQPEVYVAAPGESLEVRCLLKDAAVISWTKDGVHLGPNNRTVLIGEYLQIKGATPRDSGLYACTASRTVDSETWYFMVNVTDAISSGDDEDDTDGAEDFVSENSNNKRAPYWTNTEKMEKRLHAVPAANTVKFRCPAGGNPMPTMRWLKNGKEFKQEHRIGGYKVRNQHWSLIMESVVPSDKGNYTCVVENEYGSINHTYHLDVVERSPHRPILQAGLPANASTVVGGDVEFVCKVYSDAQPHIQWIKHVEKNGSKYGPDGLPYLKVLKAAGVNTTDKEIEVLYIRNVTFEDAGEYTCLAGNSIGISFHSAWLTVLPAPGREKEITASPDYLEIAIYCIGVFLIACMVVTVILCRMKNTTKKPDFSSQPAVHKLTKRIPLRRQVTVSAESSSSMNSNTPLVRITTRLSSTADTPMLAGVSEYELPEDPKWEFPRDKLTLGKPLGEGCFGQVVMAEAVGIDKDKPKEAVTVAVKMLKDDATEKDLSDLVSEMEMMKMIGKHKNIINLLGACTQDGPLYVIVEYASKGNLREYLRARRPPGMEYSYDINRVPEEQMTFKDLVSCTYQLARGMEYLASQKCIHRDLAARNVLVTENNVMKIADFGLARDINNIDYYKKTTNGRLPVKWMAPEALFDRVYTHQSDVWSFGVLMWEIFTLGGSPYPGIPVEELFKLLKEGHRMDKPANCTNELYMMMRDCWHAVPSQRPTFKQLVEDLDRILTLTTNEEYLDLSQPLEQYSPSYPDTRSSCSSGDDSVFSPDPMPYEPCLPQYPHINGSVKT

Structure (SMILES)	inhibition at 1 µM [1]	inhibition at 1 µM [2]	inhibition at 1 µM [3]	inhibition at 1 µM [4]	inhibition at 1 µM [5]	inhibition at 1 µM [6]	inhibition at 1 µM [7]	inhibition at 1 µM [8]	inhibition at 1 µM [9]
COc1cc2nccc(Oc3ccc(NC(=O)C4(C(=O)Nc5ccc(F)cc5)CC4)cc3)c2cc1OC [Cabozantinib, reference compound]	35%	16%	24%	73%	14%	66%	74%	17%	13%
COc1cc2nccc(Oc3ccc(NC(=O)C4(NC(=O)c5ccc(F)cc5)CC4)cc3F)c2cc1OC [Cbo-02, N-(1-((4-((6,7-diMethoxyquinolin-4-yl)oxy)-3-fluorophenyl)carbamoyl)cyclopropyl)-4-fluorobenzamide]	31%	22%	6%	34%	4%	-8%	17%	14%	14%
COc1cc2nccc(Oc3ccc(NC(=O)C4(NC(=O)c5ccc(F)cc5)CC4)cc3F)c2cc1Oc1ccc(N)cc1F [Cbo-10]	94%	29%	-1%	52%	9%	3%	39%	55%	6%
COc1cc2nccc(Oc3ccc(NC(=O)C4(NC(=O)c5ccc(F)cc5)CC4)cc3F)c2cc1Oc1c(F)cc(N)cc1F [Cbo-14]	93%	37%	1%	56%	6%	3%	64%	52%	9%
COc1cc2nccc(Oc3ccc(NC(=O)C4(C(=O)Nc5ccc(F)cc5)CC4)cc3F)c2cc1Oc1ccc(N)cc1F [Cbo-23]	72%	5%	58%	56%	-7%	40%	92%	32%	5%
